Measured values reported in patent US8524949B2, “Agomelatine hydrohalide complex and preparation method thereof” (Les Laboratories Servier, priority 2009, dated 2013).
Values after ≈ are worked out from the molar mass of the structure shown.

Experiment: Water solubility, HPLC with external standard
Assay type: physicochemical

- solubility: 1110 µg/mL (≈ 4.56 mM)
Compound: COc1ccc2cccc(CCNC(C)=O)c2c1 [Agomelatine, N-[2-(7-methoxy-1-naphthyl)ethyl]-acetamide]
